Consider four molecules from patent US20050107376A1, “Fungicidal mixtures based on prothioconazole” (priority 2002, published 2005).

For assay [1], the system named is Erysiphe [syn. Blumeria] graminis forma specialis. tritici. Nature of the assay: Activity against mildew of wheat (protective spray, wheat seedlings cultivar Kanzler). The assay is classed as in vivo. Particulars: 7 days, control 77% infestation. As to the method:
(§1) The active compounds, separately or together, were formulated as a 10% emulsion in a mixture of 63% by weight of cyclohexanone and 27% by weight of emulsifier, and diluted with water to the desired concentration.
(§2) Evaluation was carried out by determining the infected leaf areas in percent. These percentages were converted into efficacies. The efficacy (W) was calculated as follows using Abbot's formula: [formula] • α corresponds to the fungal infection of the treated plants in % and • β corresponds to the fungal infection of the untreated (control) plants in %
(§3) An efficacy of 0 means that the infection level of the treated plants corresponds to that of the untreated control plants; an efficacy of 100 means that the treated plants were not infected.
(§4) The expected efficacies of the mixtures of the active compounds were determined using Colby's formula [R. S. Colby, Weeds 15, 20-22 (1967)] and compared with the observed efficacies. Colby's formula: E x+y−x•y/100 • E expected efficacy, expressed in % of the untreated control, when using the mixture of the active compounds A and B at the concentrations a and b • x efficacy, expressed in % of the untreated control, when using active compound A at a concentration of a • y efficacy, expressed in % of the untreated control, when using active compound B at a concentration of b.
Leaves of wheat seedlings of the cultivar “Kanzler”, which had been grown in pots, were sprayed to runoff point with an aqueous suspension having the concentration of active compound stated below. The suspension or emulsion was prepared from a stock solution with 10% of active compound in a mixture comprising 85% of cyclohexanone and 5% of emulsifier. 24 hours after the spraycoating had dried on, the plants were dusted with spores of mildew of wheat (Erysiphe [syn. Blumeria] graminis forma specialis. tritici). The test plants were then placed in a greenhouse at 20-24° C. and 60-90% relative atmospheric humidity. After 7 days, the extent of the mildew development was determined visually in % infection of the total leaf area.
The visually determined values for the percentage of diseased leaf areas were converted into efficacies in % of the untreated control. An efficacy of 0 means the same disease level as in the untreated control, an efficacy of 100 means 0% disease. The expected efficacies for combinations of active compounds were determined using the abovementioned Colby formula and compared with the observed efficacies.

The test system of another assay is Puccinia recondita. The experiment in a line: Curative activity against brown rust of wheat (wheat seedlings cultivar Kanzler). The assay is classed as in vivo. Particulars: 7 days, control 90% infestation. As to the method: as §1, §2, §3, §4
Leaves of wheat seedlings of the cultivar “Kanzler”, which had been grown in pots, were dusted with spores of brown rust (Puccinia recondita). The pots were then placed in a chamber with high atmospheric humidity (90-95%), at 20-22° C. During this time, the spores germinated and the germinal tubes penetrated into the leaf tissue. The next day, the infected plants were sprayed to runoff point with an aqueous suspension having the concentration of active compound stated below. The suspension or emulsion was prepared from a stock solution with 10% of active compound in a mixture comprising 85% of cyclohexanone and 5% of emulsifier. After the spray coating had dried on, the test plants were cultivated in a greenhouse at 20-22° C. in 65-70% relative atmospheric humidity for 7 days. The extent of the rust fungus development on the leaves was then determined.
The visually determined values for the percentage of diseased leaf areas were converted into efficacies in % of the untreated control. An efficacy of 0 means the same disease level as in the untreated control, an efficacy of 100 means 0% disease. The expected efficacies for active compound combinations were determined using the abovementioned Colby formula and compared with the observed efficacies.

For the molecule `CC(Cc1ccc(C(C)(C)C)cc1)CN1CCCCC1` (stereo not drawn) [Compound IV, fenpropidin], the “Efficacy in % of the untreated control” value in assay [1] (0.15 ppm in the spray liquor) worked out at 0%; in assay [1] (0.6 ppm in the spray liquor) it was 61%; with Puccinia recondita (0.15 ppm in the spray liquor) it was 0%; in the assay with Puccinia recondita (0.6 ppm in the spray liquor), 0%; in the assay on Puccinia recondita (2.5 ppm in the spray liquor) it was 44%.

For the molecule `CC(Cc1ccc(C(C)(C)C)cc1)CN1C[C@@H](C)O[C@@H](C)C1` (stereo partly drawn) [Compound II, fenpropimorph], the “Efficacy in % of the untreated control” value in assay [1] (0.15 ppm in the spray liquor) is given as 0%; in assay [1] (0.6 ppm in the spray liquor), 0%; in assay [1] (2.5 ppm in the spray liquor) it was 74%; in the assay with Puccinia recondita (0.15 ppm in the spray liquor), 0%; in the assay on Puccinia recondita (0.6 ppm in the spray liquor), 0%; in the assay on Puccinia recondita (2.5 ppm in the spray liquor), 22%.

Turning to `OC(Cc1ccccc1Cl)(Cn1nc[nH]c1=S)C1(Cl)CC1` (stereo not drawn) [Compound I, 2-[2-(1-chlorocyclopropyl)-3-(2-chlorophenyl)-2-hydroxy-propyl]-2,4-dihydro-[1,2,4]-triazole-3-thione], the “Efficacy in % of the untreated control” value in assay [1] (0.25 ppm in the spray liquor) worked out at 0%; in assay [1] (1 ppm in the spray liquor), 0%; in the assay on Puccinia recondita (0.25 ppm in the spray liquor) it was 22%; in the assay on Puccinia recondita (1 ppm in the spray liquor), 78%.

In the case of `CCCCCCCCCCCCCN1CC(C)OC(C)C1` (stereo not drawn) [Compound III, tridemorph], the “Efficacy in % of the untreated control” value in assay [1] (0.15 ppm in the spray liquor) came to 0%; in assay [1] (0.6 ppm in the spray liquor) it was 0%; in assay [1] (2.5 ppm in the spray liquor), 48%; in the assay on Puccinia recondita (0.15 ppm in the spray liquor), 0%; in the assay on Puccinia recondita (0.6 ppm in the spray liquor), 0%; in the assay on Puccinia recondita (2.5 ppm in the spray liquor), 0%.
